Patent US20240238259A1, “COMBINATION THERAPY FOR PULMONARY HYPERTENSION” (VIVUS LLC, priority 2015, published 2024)
Read-outs that look alike come from different tables or passages of the source.

Legend:
[1] = test system: BMPR2 signaling (BRE from the Id1 promoter linked to luciferase, C2C12 mouse myoblastoma reporter cells); assay: BRE-Luc reporter high throughput screen for compounds that increase BMPR2 signaling; assay type: cell-based; conditions: screen of library of >3,600 compounds
Description: A C2C12 mouse myoblastoma reporter cells line where the BRE (BMP Response Element) from the Id1 promoter (a main downstream target of BMP signaling) was linked to luciferase (BRE-Luc) was used to identify compounds that increase BMPR2 signaling. Thus, activation of the BMP pathway was measured by luminescence. A high throughput screen of a library containing greater than 3,600 compounds was used.

patients with PAH = assay: Phase IIA randomized, double-blind, placebo-controlled clinical trial of tacrolimus in PAH (NCT01647945); assay type: in vivo, human
Description: Tacrolimus was selected as the agent for increasing BMPR2 signaling. A phase IIA trial to assess the safety and tolerability of different doses tacrolimus (goal blood level <2 ng/ml, 2-3 ng/ml, 3-5 ng/ml) vs Placebo was conducted (Clinical Trials Identifier: NCT01647945). The secondary endpoints were change in clinical worsening, change in 6-min walk distance, NT-pro BNP, Uric Acid, and novel echo parameters. The phase IIA trial was a single center trial with 23 patients. This study was open to male or female subjects, 18-70 years of age, with pulmonary hypertension. The Inclusion and Exclusion criteria used are below:
• 1. Age ≥18 and <70 years • 2. Diagnosis of WHO Group I Pulmonary Arterial Hypertension (PAH) (Idiopathic (I)PAH, Heritable PAH (including Hereditary Hemorrhagic Telangiectasia), Associated (A)PAH (including collagen vascular disorders, drugs+toxins exposure, congenital heart disease, and portopulmonary disease). • 3. Stable on active PAH treatment including any prostacycline or phosphodiesterase inhibitors and the endothelin antagonist Ambrisentan alone or in combination (stability defined as: <10% change in 6 MWD, no change in NYHA class, no hospitalization or addition of PAH therapy for at least 3 months). • 4. Previous Right Heart Catheterization (RHC) that documented: • a. Mean PAP ≥25 mmHg. • b. Pulmonary capillary wedge pressure <15 mmHg. • c. Pulmonary Vascular Resistance ≥3.0 Wood units or 240 dynes/see/cm5 • 5. All NYHA/WHO functional classes. • 6. Willingness of female subjects to use birth control, or be post-menopausal, or status post hysterectomy.
• 1. WHO Group II-V Pulmonary Hypertension. • 2. Current or prior experimental PAH treatments within the last 6 months (including but not limited to tyrosine kinase inhibitors, rho-kinase inhibitors, or cGMP modulators). • 3. Current active treatment with the dual endothelin receptor antagonist bosentan. • 4. Total lung Capacity (TLC)<60% predicted; if TLC b/w 60 and 70% predicted, high resolution computed tomography must be available to exclude significant interstitial lung disease. • 5. Forced expiratory volume (FEV1)/Forced Vital Capacity (FVC)<70% predicted and FEV1<60% predicted • 6. Significant left-sided heart disease (based on screening Echocardiogram): • a. Significant aortic or mitral valve disease • b. Diastolic dysfunction≥Grade II • c. Left Ventricle (LV) systolic function <45% • d. Pericardial constriction • e. Restrictive cardiomyopathy • f. Significant coronary disease with demonstrable ischemia. • 7. Chronic renal insufficiency defined as an estimated creatinine clearance <30 ml/min (by Modification of diet in renal disease (MDRD) equation). • 8. Current atrial arrhythmias not under optimal control. • 9. Uncontrolled systemic hypertension: SBP>160 mm or DBP>100 mm • 10. […]

PAH patients = conditions: for symptoms and exercise capacity: within 1 month of initiation, ambrisentan
[2] = all three patients, first 3-6 months
[3] = patient #1, after 3 months of treatment
[4] = patient #1, baseline, 3 and 6 months
[5] = patient #2, 12 months follow-up
[6] = patient #2, baseline, 3 and 6 months
[7] = patient #2, within 3 months of treatment

infections (PAH patients; human, in vivo, iv): did not report an increase of infections
SMILES: C=CC[C@@H]1/C=C(\C)C[C@H](C)C[C@H](OC)[C@H]2O[C@@](O)(C(=O)C(=O)N3CCCC[C@H]3C(=O)O[C@H](/C(C)=C/[C@@H]3CC[C@@H](O)[C@H](OC)C3)[C@H](C)[C@@H](O)CC1=O)[C@H](C)C[C@@H]2OC [Tacrolimus, tacrolimus]
BMPR2 signaling (activation of the BMP pathway measured by luminescence) [1]: increased BMPR2 signaling
BMPR2 signaling (biomarker data) (patients with PAH; PAH patients): increase in BMPR2 signaling
drug-related serious adverse events (patients with PAH; all tested doses): no drug-related serious adverse events
incidences of hypertension or cardiovascular events (patients with PAH; all tested doses): no incidences of hypertension or cardiovascular events
tolerability (patients with PAH; all tested doses (goal blood level <2, 2-3, 3-5 ng/ml)): well tolerated
REVEAL risk score (PAH patients; all 3 patients): improved
hospital admission for worsening of heart failure (PAH patients; all three patients, during treatment): None of the patients was admitted
6 MWD (PAH patients; [2]): increase
NT-pro BNP (PAH patients; [2]): decrease
tolerability (PAH patients; human, in vivo): tolerated low-dose tacrolimus very well
symptoms and exercise capacity (PAH patients; patient #1 (IPAH), trough goal 1.5-2.5 ng/mL, on epoprostenol, sildenafil): substantial improvement
PAH associated hospitalizations (PAH patients; patient #1, 12 months after initiation (3 in the 12 months prior)): free of any PAH associated hospitalizations
NT-proBNP (PAH patients; [3]): 678 pg/mL
NYHA class symptoms (PAH patients; [3]): NYHA Class I
improvement in 6 MWD (PAH patients; [3]): approximately 100 meters
lowering of NT-proBNP (PAH patients; [3]): > 50%
RV ejection fraction (RVEF), cMRI (PAH patients; [4]): stable
RV end-diastolic volume index (RVEDVi), cMRI (PAH patients; [4]): stable
RV stroke volume index (RVSVi), cMRI (PAH patients; [4]): increased
cardiac index (CI), cMRI (PAH patients; [4]): increased
REVEAL risk score (PAH patients; patient #1, on treatment (11 at transplant listing)): 3
lung transplant list status (PAH patients; patient #1, within 2 months): placed on a status 7 (hold) for transplantation
symptoms and exercise capacity (PAH patients; patient #2 (systemic sclerosis associated PAH), on treprostinil, sildenafil, dopamine): some improvement
PAH related hospitalizations (PAH patients; patient #2, 12 months after initiation (4 in the 15 months prior)): free from any PAH related hospitalizations
CO (PAH patients; [5]): 3.4 L/min
NT-pro BNP (PAH patients; [5]): 1,895 pg/mL
NT-pro BNP reduction compared to baseline (PAH patients; [5]): 30%
NYHA symptoms (PAH patients; [5]): stable NYHA III symptoms
PAWP (PAH patients; [5]): 10 mmHg
PVR (PAH patients; [5]): 14.1 WU
SVO2 (PAH patients; [5]): 59%
increase in 6 MWD (PAH patients; [5]): 94 meter
mPAP (PAH patients; [5]): 58 mmHg
mRAP (PAH patients; [5]): 7 mmHg
CI, cMRI (PAH patients; [6]): improvement
RVEDVi, cMRI (PAH patients; [6]): stable
RVEF, cMRI (PAH patients; [6]): substantial improvement
RVSVi, cMRI (PAH patients; [6]): improvement
REVEAL risk score (PAH patients; patient #2, on treatment (from 12)): 11
NT-pro BNP (PAH patients; patient #2, within 1 month (from 2,669)): 1,895 pg/mL
6 MWD improved by (PAH patients; [7]): 18 meters
NT-pro BNP (PAH patients; [7]): 1,580 pg/mL
NYHA symptoms (PAH patients; [7]): stable NYHA III symptoms
symptoms (PAH patients; patient #3 (drugs and toxins associated PAH), over a 5-months period, on treprostinil, sildenafil): symptomatic improvement
